Data reported in patent publication US20240139280A1, “USE OF HIF-1-ALPHA INHIBITORS IN CANCER IMMUNOTHERAPY” (ONCOC4, INC., priority 2021, published 2024).

Experiments:
[1] = test system: E0771 tumor microenvironment; assay: Flow cytometry of dissociated E0771 tumors (tumor cells, myeloid cells, TILs); type: in vivo, C57BL/6 mice
Description: FIGS. 6A-D. E0771 cells (0.5×10^6) were orthotopically transplanted into C57BL/6 mice (day 0). The mice received treatment with vehicle, echinomycin (LEM, 0.25 mg/kg/dose), anti-CTLA-4 mAb (9D9, 0.2 mg/mouse/injection), or their combination on days 6, 8, 10, and 12, and were euthanized on day 14. The tumors were dissociated and analyzed by flow cytometry to quantitate PD-L1 expression on tumor cells (gated on Singlets/Live_CD45^−) (FIG. 6A), M-MDSCs (gated on Singlets/Live_CD45^+/CD11b^+CD11c^−/Ly6ChighLy6G^−) (FIG. 6B), PMN-MDSCs (gated on Singlets/Live_CD45^+/CD11b^+CD11c^−/Ly6CInt.Ly6G^+) (FIG. 6C), or CD11c^+TAMs (gated on Singlets/Live_CD45^+/CD11b^+CD11c^+) (FIG. 6D). Upper panels show representative histograms of PD-L1 staining and lower panels show aggregate data from individual mice, pooled from three independent experiments (n=5 mice/group/experiment). Data shown are mean±SEM of PD-L1 MFI. Statistics were determined by one-way ANOVA with Sidak's multiple comparisons test (FIG. 6A), or by two-tailed unpaired t-tests (FIGS. 6B-D). FIGS. 6E-G. Echinomycin treatment reprograms the TME. Dissociated E0771 tumors were obtained from C57BL/6 mice treated with different therapies (n=5 mice/group), as described in FIGS. 6A-D. Single cell suspension were cultured for 4 hours with PMA+ionomycin+Golgi stop, surface stained, and then intracellular stained for IFNγ (for quantitation of Th1 and Tc1 cells) or surface stained for PD-L1. FIG. 6E. IFNγ expression in CD8+tumor-infiltrating lymphocytes (TILs) (gated on Singlets/Live_CD45^+/CD3^+/CD8^+CD4^−). […] FIG. 6F. IFNγ expression in the CD4^+ TILs (gated on Singlets/Live_CD45^+/CD3^+/CD8^−CD4^+). As in FIG. 6E, except that CD4 TIL were analyzed.
FIG. 6G. MHCII expression on CD11c^+ TAMs (gated on Singlets/Live_CD45^+/CD11b^+CD11c^+).
FIGS. 9A-H. C57BL/6 mice received E0771 cells (0.5×10^6/mouse) on day 0 followed by treatment with vehicle, echinomycin (LEM, 0.25 mg/kg/dose), anti-CTLA-4 (9D9, 0.2 mg/mouse/dose), or 9D9+LEM on days 6, 8, and 10. On day 14, tumors were analyzed by flow cytometry. […] Data are presented as the ±SEM of each group (n=5/group), analyzed by unpaired two-tailed Student's t-test and are representative of two experiments. FIGS. 9A-B. Frequencies of TILs expressing PD-1. FIGS. 9C-D. Frequencies of annexin V^+ CD8 or CD4 TILs. FIGS. 9E-F. Frequencies of CD8 TILs expressing granzyme B or perforin. FIGS. 9G-H. Granzyme B and perforin expression in CD4 TILs. FIG. 9I. Effect of depletion of CD4, CD8, or NK cells on tumor growth inhibition by 9D9+LEM in syngeneic E0771 model. C57BL/6 mice received E0771 cells (0.5×10^6/mouse) on day 0. On day 5, the mice were randomized to receive depletory antibodies (500 μg of anti-CD4 (GK1.5), anti-CD8 (YTS169.4), anti-NK1.1 (PK136), or isotype ctrl). All groups received 9D9 (200 ug) on day 6, and LEM (250 ug/kg) on days 6, 8, and 10. Mice received supplemental dose of depletory antibodies (200 μg) on days 8 and 10. The mean±SEM tumor volumes are plotted on the y axes for each group (n=5/group) and analyzed by two-way ANOVA. Representative data shown for one of two experiments.

[2] = test system: intestinal tissues; assay: Ipilimumab-induced GI-irAE in human CTLA4 knockin mice (FITC-dextran, histology, PD-L1)
Description: Experimental design for GI-irAE induction by Ipilimumab, with or without additional therapies. 10-day old CTLA4h/h mice received 0.1 mg of Ipilimumab on days 10, 13, 16, and 19 after birth to induce the GI-irAE phenotype, measured by FITC-dextran assay on day 32. On day 33, the mice were sacrificed for histological and immunofluorescent analysis of intestinal tissues, and flow cytometry, etc. […] Aggregate data from 4 experiments are presented. […] Starting on day 10 after birth, the mice began receiving treatment with vehicle (n=33), echinomycin (n=27), Ipilimumab (n=33), Ipilimumab+echinomycin (n=26), Ipilimumab+RMP1-14 (n=27), Ipilimumab+echinomycin+RMP1-14 (n=28), or Ipilimumab+echinomycin+XMG1.2 (n=15). Echinomycin (10 μg/kg), Ipilimumab (0.1 mg/mouse/injection), RMP1-14 (0.2 mg/mouse/injection), and XMG1.2 (0.2 mg/mouse/injection). Vehicle or echinomycin (10 μg/kg) were given once every three days for 8 doses, and mAbs (0.1 mg/mo. for Ipilimumab; 0.2 mg/mo. for RMP1-14 and XMG1.2) once every three days for 4 doses. Data collection was performed as described in (FIG. 8A). […] Serum FITC-dextran intensity shown as mean±SEM for individual mice pooled from 3 independent experiments. […] Statistics were determined by unpaired t tests (two-tailed) for group means. […] Representative H&E images from intestines of Ipilimumab-treated mice additionally treated with echinomycin (panel i), RMP1-14 (panels ii-iv), echinomycin+RMP1-14 (panels v-vi), or echinomycin+XMG1.2 (panels vii-viii). […] Representative immunofluorescence images showing relative expression of PD-L1 in jejunum of mice from different treatment groups.
Therefore, we used intestinal permeability to orally administrated FITC-dextran and histology as the readout for irAE (FIG. 8A).

[3] = with or without anti-CTLA-4 therapy

CSC1SC[C@H]2C(=O)N(C)[C@@H](C(C)C)C(=O)OC[C@@H](NC(=O)c3cnc4ccccc4n3)C(=O)N[C@@H](C)C(=O)N(C)[C@@H]1C(=O)N(C)[C@@H](C(C)C)C(=O)OC[C@@H](NC(=O)c1cnc3ccccc3n1)C(=O)N[C@@H](C)C(=O)N2C (stereo in doubt) [echinomycin, N,N′-(2,4,12,15,17,25-hexamethyl-11,24-bis(1-methylethyl)-27-(methylthio)-3,6,10,13,16,19,23,26-octaoxo-9,22-dioxa-28-thia-2,5,12,15,18,25-hexaazabicyclo(12.12.3)nonacosane-7,20-diyl)bis(2-quinoxalinecarboxamide)]
frequencies of tumor-infiltrated lymphocytes or myeloid subsets ([1]; E0771 tumors): did not significantly impact
apoptotic (annexin V) CD8 TILs ([1]; compared to vehicle, echinomycin added to 9D9): appeared to repress this effect
PD-1 expression on CD8 TILs ([1]; compared to vehicle, echinomycin added to anti-CTLA-4): reversed
PD-L1 expression on CD11b+CD11c+ double-positive cells [1, 3]: significantly reduced PD-L1 expression
PD-L1 expression on PMN-MDSCs [1, 3]: significantly reduced PD-L1 expression
PD-L1 expression on tumor-infiltrated monocytic MDSCs (M-MDSC) [1, 3]: significantly reduced PD-L1 expression
PD-L1 expression on tumor cells ([1]; with or without anti-CTLA-4 therapy, LEM 0.25 mg/kg/dose): significantly reduced PD-L1 expression
PD-L1 expression in the intestines ([2]; Ipilimumab 0.1 mg/mouse/injection, echinomycin 10 μg/kg added to Ipilimumab): enhanced PD-L1 expression
Ipilimumab-induced intestinal leakage (FITC-dextran) ([2]; agent added to Ipilimumab (anti-PD-1 added to Ipilimumab+echinomycin)): protected against Ipilimumab-induced intestinal leakage
H&E findings in intestines of Ipilimumab-treated mice additionally treated with the agent ([2]; representative images, FIG. 8F panels): normal pathology
